The source made the active and inactive calls. The rule behind the calls is not given here.
Experiments:
CCRF-CEM = assay: Antiproliferative activity against human CCRF-CEM cells assessed as cell growth inhibition; type: functional
K562 = assay: Antiproliferative activity against human K562 cells assessed as cell growth inhibition; type: functional
MOLT-4 = assay: Antiproliferative activity against human MOLT-4 cells assessed as cell growth inhibition; type: functional
COLO 205 = assay: Antiproliferative activity against human COLO 205 cells assessed as cell growth inhibition; type: functional
HCT-116 = assay: Antiproliferative activity against human HCT-116 cells assessed as cell growth inhibition; type: functional
HCT-15 = assay: Antiproliferative activity against human HCT-15 cells assessed as cell growth inhibition; type: functional
HT-29 = assay: Antiproliferative activity against human HT-29 cells assessed as cell growth inhibition; type: functional
SF-295 = assay: Antiproliferative activity against human SF-295 cells assessed as cell growth inhibition; type: functional
SF-539 = assay: Antiproliferative activity against human SF-539 cells assessed as cell growth inhibition; type: functional
LOX IMVI = assay: Antiproliferative activity against human LOX IMVI cells assessed as cell growth inhibition; type: functional
M14 = assay: Antiproliferative activity against human M14 cells assessed as cell growth inhibition; type: functional
OVCAR-3 = assay: Antiproliferative activity against human OVCAR-3 cells assessed as cell growth inhibition; type: functional
OVCAR-4 = assay: Antiproliferative activity against human OVCAR-4 cells assessed as cell growth inhibition; type: functional
CAKI-1 = assay: Antiproliferative activity against human CAKI-1 cells assessed as cell growth inhibition; type: functional
RXF 393 = assay: Antiproliferative activity against human RXF 393 cells assessed as cell growth inhibition; type: functional
SN12C = assay: Antiproliferative activity against human SN12C cells assessed as cell growth inhibition; type: functional
DU-145 = assay: Antiproliferative activity against human DU-145 cells assessed as cell growth inhibition; type: functional
[1] = Cytotoxicity against human WI-38 cells assessed as reduction in cell growth measured after 48 hrs by MTT assay; type: toxicity, cell-based
[2] = Cytotoxicity against human HS27 cells assessed as reduction in cell growth measured after 48 hrs by MTT assay; type: toxicity, cell-based
[3] = Selectivity index, ratio of IC50 for human WI-38 cells to IC50 for human K562 cells; type: toxicity; settings: WI-38 cells and K562 cells, read-out: Ratio IC50
[4] = Selectivity index, ratio of IC50 for human WI-38 cells to IC50 for human MOLT-4 cells
[5] = Selectivity index, ratio of IC50 for human WI-38 cells to IC50 for human SR cells; type: toxicity; settings: WI-38 cells and SR cells, read-out: Ratio IC50
[6] = Selectivity index, ratio of IC50 for human WI-38 cells to IC50 for human COLO 205 cells
[7] = Selectivity index, ratio of IC50 for human WI-38 cells to IC50 for human HCT-116 cells; type: toxicity; settings: WI-38 cells and HCT-116 cells, read-out: Ratio IC50
[8] = Selectivity index, ratio of IC50 for human WI-38 cells to IC50 for human LOX IMVI cells
[9] = Selectivity index, ratio of IC50 for human WI-38 cells to IC50 for human M14 cells
[10] = Selectivity index, ratio of IC50 for human WI-38 cells to IC50 for human OVCAR-3 cells
[11] = Selectivity index, ratio of IC50 for human WI-38 cells to IC50 for human 786-0 cells
[12] = Selectivity index, ratio of IC50 for human WI-38 cells to IC50 for human SN12C cells
[13] = Selectivity index, ratio of IC50 for human WI-38 cells to IC50 for human PC-3 cells; type: toxicity; settings: WI-38 cells and PC-3 cells, read-out: Ratio IC50
[14] = Selectivity index, ratio of IC50 for human WI-38 cells to IC50 for human MDA-MB-468 cells; type: toxicity; settings: WI-38 cells and MDA-MB-468 cells, read-out: Ratio IC50
[15] = Selectivity index, ratio of IC50 for human HS27 cells to IC50 for human CCRF-CEM cells
[16] = Selectivity index, ratio of IC50 for human HS27 cells to IC50 for human SR cells
[17] = Selectivity index, ratio of IC50 for human HS27 cells to IC50 for human NCI-H460 cells
[18] = Selectivity index, ratio of IC50 for human HS27 cells to IC50 for human HCT-116 cells
[19] = Selectivity index, ratio of IC50 for human HS27 cells to IC50 for human SF-295 cells
[20] = Selectivity index, ratio of IC50 for human HS27 cells to IC50 for human SNB-75 cells
[21] = Selectivity index, ratio of IC50 for human HS27 cells to IC50 for human LOX IMVI cells
[22] = Selectivity index, ratio of IC50 for human HS27 cells to IC50 for human Malme-3M cells
[23] = Selectivity index, ratio of IC50 for human HS27 cells to IC50 for human MDA-MB-435 cells
[24] = Selectivity index, ratio of IC50 for human HS27 cells to IC50 for human OVCAR-4 cells
[25] = Selectivity index, ratio of IC50 for human HS27 cells to IC50 for human RXF 393 cells
[26] = Selectivity index, ratio of IC50 for human HS27 cells to IC50 for human SN12C cells
[27] = Selectivity index, ratio of IC50 for human HS27 cells to IC50 for human MCF7 cells
Hep 3B2 [28] = assay: Induction of apoptosis in human Hep3B cells assessed as increase in cleaved PARP expression at 3.38 uM measured after 48 hrs by Western blot analysis relative to control; type: functional
Hep 3B2 [29] = assay: Induction of apoptosis in human Hep3B cells assessed as increase in cleaved caspase-3 expression at 3.38 uM measured after 48 hrs by Western blot analysis relative to control; type: functional
Hep 3B2 [30] = assay: Cell cycle arrest in human Hep3B cells assessed as downregulation of cyclin D1 expression at 3.38 uM measured after 48 hrs by Western blot analysis; type: functional, cell-based
[31] = target: Macrophage colony-stimulating factor 1 receptor (Homo sapiens, UniProt P07333); assay: Inhibition of FMS (unknown origin) using myelin basic protein as substrate measured after 40 mins in presence of [gamma-33P]-ATP by scintillation counting method; settings: read-out: IC50
Sequence of Macrophage colony-stimulating factor 1 receptor (P07333 whole entry): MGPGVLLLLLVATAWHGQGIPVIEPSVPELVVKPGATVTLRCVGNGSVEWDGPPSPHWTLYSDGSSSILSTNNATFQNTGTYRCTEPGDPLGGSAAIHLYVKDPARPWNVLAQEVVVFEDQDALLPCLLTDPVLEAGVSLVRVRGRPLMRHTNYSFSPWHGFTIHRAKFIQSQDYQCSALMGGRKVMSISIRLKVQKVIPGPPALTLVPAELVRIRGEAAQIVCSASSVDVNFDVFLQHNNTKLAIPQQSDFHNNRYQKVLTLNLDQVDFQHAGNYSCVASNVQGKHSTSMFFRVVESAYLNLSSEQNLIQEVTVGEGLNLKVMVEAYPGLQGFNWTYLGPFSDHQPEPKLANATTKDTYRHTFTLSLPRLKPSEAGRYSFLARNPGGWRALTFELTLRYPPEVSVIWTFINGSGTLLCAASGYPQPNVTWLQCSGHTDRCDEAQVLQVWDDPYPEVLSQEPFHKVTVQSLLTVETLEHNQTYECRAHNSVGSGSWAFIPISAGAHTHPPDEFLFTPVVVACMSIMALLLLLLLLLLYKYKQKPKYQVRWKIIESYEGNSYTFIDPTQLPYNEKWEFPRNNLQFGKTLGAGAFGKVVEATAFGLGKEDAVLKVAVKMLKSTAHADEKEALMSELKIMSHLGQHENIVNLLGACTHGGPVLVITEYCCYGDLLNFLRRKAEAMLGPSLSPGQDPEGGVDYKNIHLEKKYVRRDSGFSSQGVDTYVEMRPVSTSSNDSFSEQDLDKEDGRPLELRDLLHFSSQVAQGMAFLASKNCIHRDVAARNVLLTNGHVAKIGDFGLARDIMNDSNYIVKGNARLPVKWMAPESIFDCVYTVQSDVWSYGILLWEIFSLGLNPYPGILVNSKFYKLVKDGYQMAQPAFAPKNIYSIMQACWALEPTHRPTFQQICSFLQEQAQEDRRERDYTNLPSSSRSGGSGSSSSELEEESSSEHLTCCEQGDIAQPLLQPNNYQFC

Compound `CCN1CCN(c2ccc(NC(=O)Nc3ccc(-c4cc(C(=O)NC(C)C)c5ncccc5n4)cc3)cc2C(F)(F)F)CC1` has a TGI (CCRF-CEM) of 3100 nM, a GI50 (K562) of 1000 nM and a TGI (K562) of 34500 nM. It also gave a TGI (MOLT-4) of 30600 nM, a GI50 (COLO 205) of 930 nM and a TGI (COLO 205) of 2710 nM. For the same compound, the GI50 (HCT-116) was 640 nM, the TGI (HCT-116) was 1300 nM and the GI50 (HCT-15) was 670 nM. For the same compound, the TGI (HCT-15) was 1350 nM, the GI50 (HT-29) was 670 nM and the TGI (HT-29) was 1320 nM. The GI50 (SF-295) was 580 nM, the TGI (SF-295) was 1140 nM and the GI50 (SF-539) was 530 nM. The TGI (SF-539) was 1020 nM, the GI50 (LOX IMVI) was 560 nM and the TGI (LOX IMVI) was 1050 nM. For the same compound, the GI50 (M14) was 720 nM, the TGI (M14) was 1900 nM and the GI50 (OVCAR-3) was 640 nM. For the same compound, the TGI (OVCAR-3) was 1360 nM, the GI50 (OVCAR-4) was 880 nM and the TGI (OVCAR-4) was 2450 nM. For the same compound, the GI50 (CAKI-1) was 800 nM, the TGI (CAKI-1) was 2080 nM and the GI50 (RXF 393) was 650 nM. The TGI (RXF 393) was 1730 nM, the GI50 (SN12C) was 670 nM and the TGI (SN12C) was 1380 nM. The GI50 (DU-145) was 750 nM, the TGI (DU-145) was 1580 nM and the IC50 at 48 h [1] was 16200 nM. The IC50 at 48 h [2] was 8400 nM, the selectivity ratio [3] was 15.4 and the “Ratio IC50” value [4] was 15.43. The selectivity ratio [5] was 15.4, the “Ratio IC50” value [6] was 18.84 and the selectivity ratio [7] was 18.8. The “Ratio IC50” value [8] was 8.62, the “Ratio IC50” value [9] was 8.62 and the “Ratio IC50” value [10] was 5.89. The “Ratio IC50” value [11] was 10.52, the “Ratio IC50” value [12] was 10.52 and the selectivity ratio [13] was 21.6. For the same compound, the selectivity ratio [14] was 10.1, the “Ratio IC50” value [15] was 8 and the “Ratio IC50” value [16] was 8. For the same compound, the “Ratio IC50” value [17] was 3.32, the “Ratio IC50” value [18] was 9.77 and the “Ratio IC50” value [19] was 4.52. The “Ratio IC50” value [20] was 4.52, the “Ratio IC50” value [21] was 4.47 and the “Ratio IC50” value [22] was 4.47. For the same compound, the “Ratio IC50” value [23] was 4.47, the “Ratio IC50” value [24] was 3.05 and the “Ratio IC50” value [25] was 5.45. For the same compound, the “Ratio IC50” value [26] was 5.45, the “Ratio IC50” value [27] was 5.22 and the “fold change (FC)” value (Hep 3B2 [28]) was 27. For the same compound, the “fold change (FC)” value (Hep 3B2 [29]) was 473.5, the Activity (Hep 3B2 [30]) was “Active” and the IC50 [31] was 993 nM.

Source: ChEMBL document CHEMBL5584237, “Design, synthesis, biological evaluation, and in silico studies of novel pyridopyridine derivatives as anticancer candidates targeting FMS kinase” (Eur J Med Chem, 2024)
